pIC50, pKi: −log10 of the molar value. Each block holds one compound with its values, some of them ahead of it.
How the values were obtained:
TCF4-CTNNB1 complex [1] = biological target: T1, TCF4-CTNNB1 complex (Homo sapiens, UniProt P35222+Q9NQB0); assay: Inhibition of human beta-Catenin/GST-tagged TCF4 (unknown origin) protein-protein interaction incubated for 2 hrs by ELISA assay; assay type: protein-complex assay
T1 sequence (P35222 whole entry): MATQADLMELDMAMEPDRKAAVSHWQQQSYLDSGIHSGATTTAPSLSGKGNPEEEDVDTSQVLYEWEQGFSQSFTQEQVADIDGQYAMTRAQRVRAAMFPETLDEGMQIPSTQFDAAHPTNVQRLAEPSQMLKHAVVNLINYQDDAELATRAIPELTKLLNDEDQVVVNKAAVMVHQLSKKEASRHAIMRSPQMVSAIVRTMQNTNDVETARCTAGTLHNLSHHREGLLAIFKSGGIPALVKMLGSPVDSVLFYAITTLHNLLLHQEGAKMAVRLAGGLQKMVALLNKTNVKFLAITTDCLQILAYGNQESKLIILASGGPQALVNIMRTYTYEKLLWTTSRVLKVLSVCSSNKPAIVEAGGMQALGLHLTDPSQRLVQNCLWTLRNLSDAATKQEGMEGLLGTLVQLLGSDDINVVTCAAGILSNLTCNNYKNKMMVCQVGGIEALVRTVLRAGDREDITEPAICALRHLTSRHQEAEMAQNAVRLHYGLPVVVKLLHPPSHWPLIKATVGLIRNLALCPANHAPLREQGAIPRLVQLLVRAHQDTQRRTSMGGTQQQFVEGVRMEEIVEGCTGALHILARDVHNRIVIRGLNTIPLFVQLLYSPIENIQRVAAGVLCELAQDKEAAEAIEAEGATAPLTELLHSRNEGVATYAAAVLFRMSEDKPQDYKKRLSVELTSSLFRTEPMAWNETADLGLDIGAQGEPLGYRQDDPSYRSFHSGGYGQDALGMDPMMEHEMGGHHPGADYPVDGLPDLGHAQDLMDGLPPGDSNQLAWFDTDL
T1 sequence (P15884 whole entry): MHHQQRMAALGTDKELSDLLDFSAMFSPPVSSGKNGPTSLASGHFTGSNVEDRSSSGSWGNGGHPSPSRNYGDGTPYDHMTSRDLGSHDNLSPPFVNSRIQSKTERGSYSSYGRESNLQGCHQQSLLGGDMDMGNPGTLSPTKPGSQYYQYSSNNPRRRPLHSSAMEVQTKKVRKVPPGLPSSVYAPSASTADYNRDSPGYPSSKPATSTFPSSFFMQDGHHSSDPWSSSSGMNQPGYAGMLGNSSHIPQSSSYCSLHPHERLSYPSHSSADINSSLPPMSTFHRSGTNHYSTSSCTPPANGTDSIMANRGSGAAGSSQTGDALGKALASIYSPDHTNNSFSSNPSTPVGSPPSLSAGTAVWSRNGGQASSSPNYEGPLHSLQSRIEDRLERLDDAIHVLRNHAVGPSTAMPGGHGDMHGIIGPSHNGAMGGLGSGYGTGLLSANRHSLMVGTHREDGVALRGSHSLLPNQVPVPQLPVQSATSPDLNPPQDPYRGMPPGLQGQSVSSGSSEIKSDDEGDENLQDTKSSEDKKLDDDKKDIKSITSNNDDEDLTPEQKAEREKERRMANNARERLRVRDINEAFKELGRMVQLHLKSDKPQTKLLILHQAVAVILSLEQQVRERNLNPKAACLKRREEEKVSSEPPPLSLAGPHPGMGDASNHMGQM

SW480 = assay: Antiproliferative activity against human SW480 cells assessed as inhibition of cell growth by MTS assay; assay type: functional, cell-based
HT-29 = assay: Antiproliferative activity against human HT-29 cells assessed as inhibition of cell growth by MTS assay; assay type: functional, cell-based
HCT-116 = assay: Antiproliferative activity against human HCT-116 cells assessed as inhibition of cell growth by MTS assay; assay type: functional, cell-based
[2] = biological target: T2, Catenin beta-1/Cadherin-1 (Homo sapiens, UniProt P35222); assay: Inhibition of His6-tagged human beta-Catenin (138 to 686 residues)/C-terminal fluorescein-labeled human E-cadherin (819 to 873 residues) protein-protein interaction assessed as inhibition constant by AlphaScreen competitive assay
T2 sequence (P35222 whole entry): T1 sequence (P35222 whole entry)
T2 sequence (P12830 whole entry): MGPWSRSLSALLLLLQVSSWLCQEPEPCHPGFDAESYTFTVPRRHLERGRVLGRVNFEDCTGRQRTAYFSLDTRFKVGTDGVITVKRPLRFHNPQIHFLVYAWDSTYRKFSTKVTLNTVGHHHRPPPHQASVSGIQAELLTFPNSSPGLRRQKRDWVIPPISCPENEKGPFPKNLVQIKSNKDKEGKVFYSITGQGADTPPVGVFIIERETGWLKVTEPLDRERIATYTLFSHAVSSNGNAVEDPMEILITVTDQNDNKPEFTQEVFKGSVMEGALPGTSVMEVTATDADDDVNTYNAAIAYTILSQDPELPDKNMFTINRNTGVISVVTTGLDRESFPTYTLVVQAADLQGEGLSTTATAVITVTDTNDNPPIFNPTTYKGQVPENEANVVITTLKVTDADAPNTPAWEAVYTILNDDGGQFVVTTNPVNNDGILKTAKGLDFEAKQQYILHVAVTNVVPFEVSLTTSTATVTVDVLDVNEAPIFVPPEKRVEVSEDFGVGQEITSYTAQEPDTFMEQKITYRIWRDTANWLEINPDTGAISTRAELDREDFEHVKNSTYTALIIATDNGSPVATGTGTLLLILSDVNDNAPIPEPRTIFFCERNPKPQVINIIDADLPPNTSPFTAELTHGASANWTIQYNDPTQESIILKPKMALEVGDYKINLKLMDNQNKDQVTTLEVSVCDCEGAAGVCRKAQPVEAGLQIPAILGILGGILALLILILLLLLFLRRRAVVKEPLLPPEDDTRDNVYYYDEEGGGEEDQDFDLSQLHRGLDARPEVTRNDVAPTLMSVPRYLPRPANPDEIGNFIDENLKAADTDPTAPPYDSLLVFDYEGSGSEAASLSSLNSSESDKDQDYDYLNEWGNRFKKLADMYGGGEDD

[3] = Inhibition of human beta-Catenin (138 to 686 residues)/C-terminal fluorescein-labeled human APC (1477 to 1519 residues) protein-protein interaction assessed as inhibition constant incubated for 30 mins by fluorescence polarization assay
[4] = biological target: T3, beta-catenin-B-cell lymphoma 9 protein complex (Homo sapiens, UniProt O00512+P35222); assay: Inhibition of Flag-tagged beta-Catenin (unknown origin)/Flag-tagged BCL9 (unknown origin) protein-protein interaction assessed as inhibition constant by ELISA assay; assay type: protein-complex assay
T3 sequence (P35222 whole entry): T1 sequence (P35222 whole entry)
T3 sequence (O00512 whole entry): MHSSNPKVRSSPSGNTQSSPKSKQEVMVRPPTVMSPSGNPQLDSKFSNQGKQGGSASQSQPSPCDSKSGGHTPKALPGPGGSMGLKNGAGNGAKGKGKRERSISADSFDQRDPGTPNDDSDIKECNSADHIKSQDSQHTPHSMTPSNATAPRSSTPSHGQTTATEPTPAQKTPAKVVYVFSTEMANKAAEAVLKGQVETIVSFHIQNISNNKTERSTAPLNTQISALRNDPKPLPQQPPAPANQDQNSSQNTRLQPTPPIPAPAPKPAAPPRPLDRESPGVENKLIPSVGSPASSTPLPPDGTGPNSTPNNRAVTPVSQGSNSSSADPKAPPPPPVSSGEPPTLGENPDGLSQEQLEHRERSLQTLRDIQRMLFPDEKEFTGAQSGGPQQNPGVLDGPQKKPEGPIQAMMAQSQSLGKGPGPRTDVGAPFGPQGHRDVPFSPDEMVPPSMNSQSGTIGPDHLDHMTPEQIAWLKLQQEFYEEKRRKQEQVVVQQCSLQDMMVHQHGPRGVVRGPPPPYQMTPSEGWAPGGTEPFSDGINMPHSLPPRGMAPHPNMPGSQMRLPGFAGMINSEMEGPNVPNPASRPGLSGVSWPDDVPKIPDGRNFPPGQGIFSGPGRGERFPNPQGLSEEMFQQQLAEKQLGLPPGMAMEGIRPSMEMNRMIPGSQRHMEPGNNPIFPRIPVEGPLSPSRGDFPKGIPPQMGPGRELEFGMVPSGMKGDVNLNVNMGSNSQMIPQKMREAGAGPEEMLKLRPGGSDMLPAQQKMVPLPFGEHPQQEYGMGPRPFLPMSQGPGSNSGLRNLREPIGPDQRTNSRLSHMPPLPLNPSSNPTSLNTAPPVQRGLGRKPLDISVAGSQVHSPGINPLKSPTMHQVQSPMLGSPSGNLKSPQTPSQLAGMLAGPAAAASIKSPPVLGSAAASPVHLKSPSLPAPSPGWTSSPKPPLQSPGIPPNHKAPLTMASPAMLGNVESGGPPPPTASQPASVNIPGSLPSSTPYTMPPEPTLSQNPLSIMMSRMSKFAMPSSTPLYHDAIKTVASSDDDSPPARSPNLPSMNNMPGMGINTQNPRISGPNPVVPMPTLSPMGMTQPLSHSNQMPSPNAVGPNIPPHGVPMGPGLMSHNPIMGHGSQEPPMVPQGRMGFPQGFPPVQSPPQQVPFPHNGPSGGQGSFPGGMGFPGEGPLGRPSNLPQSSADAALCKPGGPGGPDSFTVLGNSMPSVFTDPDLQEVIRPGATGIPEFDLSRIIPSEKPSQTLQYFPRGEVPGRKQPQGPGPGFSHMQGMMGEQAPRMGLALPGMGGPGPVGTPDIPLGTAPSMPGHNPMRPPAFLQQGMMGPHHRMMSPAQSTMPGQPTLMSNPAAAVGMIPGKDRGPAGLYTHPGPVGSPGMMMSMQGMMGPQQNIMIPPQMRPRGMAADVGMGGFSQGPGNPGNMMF

TCF4-CTNNB1 complex [5] = biological target: T1, TCF4-CTNNB1 complex; assay: Inhibition of beta-Catenin/GST-tagged TCF4 protein-protein interaction in human HCT-116 cells incubated for 24 hrs by immunoprecipitation assay; assay type: cell-based
[6] = Inhibition of Wnt1 signalling in human SW480 cells expressing ST-Luc incubated for 24 hrs by luciferase reporter assay; assay type: cell-based; conditions: SW480, 24 h

Structure (SMILES): COC(=O)c1c(C)cc2c(c1O)[C@]1(O)C(=O)c3cc4c(c(O)c3C(=O)[C@]1(OC)[C@H](O)C2)C(=O)C=C(N[C@@H]1O[C@H](C)[C@@H](OC)[C@H](O)[C@@H]1OC)C4=O
pIC50 (TCF4-CTNNB1 complex [1]): 6.19

Structure (SMILES): O=C(Nc1ccc(O[C@H]2CCNC2)c(-c2ccc(F)cc2)c1)c1ccc(O[C@H]2CCNC2)c(-c2ccc(F)c(F)c2)c1
pKi [2]: 3.59

Structure (SMILES): CC(C)c1cc2c(c(O)c1O)[C@@]1(C(=O)O)CCCC(C)(C)C1CC2 (stereo partly specified)
pKi [4]: 5.48

More lines, now with the values ahead:

pIC50 (SW480): 4.54
pIC50 (HT-29): 5.00
pIC50 (HCT-116): 5.00
Structure (SMILES): CCOC(=O)CC[C@H](NC(=O)[C@H](CC(=O)OCC)NC(=O)[C@H](Cc1ccc2ccccc2c1)NC(=O)Cc1cc2cc(Cl)ccc2[nH]1)C(=O)OC

pKi [3]: 4.06
pIC50 (SW480): 3.63
Structure (SMILES): COC(=O)[C@H](CCC(=O)O)NC(=O)[C@H](CC(=O)O)NC(=O)[C@H](Cc1ccc2ccccc2c1)NC(=O)Cc1cc2cc(Cl)ccc2[nH]1

pIC50 (TCF4-CTNNB1 complex [1]): 5.39
pIC50 (TCF4-CTNNB1 complex [5]): 5.00
Structure (SMILES): COc1c(CC(C)OC(=O)c2c(C)cc(O)cc2C)c2c3c(CC(C)OC(=O)c4c(C)cc(O)cc4O)c(OC)c(=O)c4c(O)cc(OC)c(c5c(OC)cc(O)c(c1=O)c52)c43 (stereo unspecified)

pIC50 [6]: 6.22
Structure (SMILES): C=C1C(=O)[C@@]23[C@H](O)C[C@@H]4C(C)(C)CC[C@H](O)[C@@]4(COC(C)=O)[C@@H]2CC[C@H]1[C@H]3O

Source: ChEMBL document CHEMBL5331063, “Recent advances of β-catenin small molecule inhibitors for cancer therapy: Current development and future perspectives” (Eur J Med Chem, 2022)
